From the supplement of paper PMC11451515

How the values were obtained:
SEM cells [1] = experiment: cell viability relative to DMSO control; higher = less cytotoxic; details: HPLM + 10% dialyzed FBS, 48 h
Method in brief: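 Viability is expressed as a percentage of DMSO wells within each plate, and cell-free wells serve as background. Seeding densities in the 1536-well plates (5 μl) were 500 cells/well for NOMO1 or SEM leukemia cells and 1000 cells/well for P12-Ichikawa. Each line was adapted for at least four passages in each medium. Library compounds in DMSO were pin-dosed at 47 μM to 0.79 nM (11 points, threefold), and CellTiter-Glo One luminescence was read after 48 h at 37°C.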

NOMO1 = experiment: AUC of viability dose-response curve (% viability x log10 dose units); higher = less sensitive; details: 48 h
Method in brief: (§1)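 Medium-adapted leukemia cells in 1536-well plates, at 500 or 1000 cells/well, were incubated for 48 h at 37°C with library compounds in DMSO at 11 threefold doses from 47 μM to 0.79 nM. CellTiter-Glo One luminescence normalised per plate to DMSO and cell-free wells was fitted with a four-parameter log-logistic model over log10 doses. Area under the curve was integrated from this fit by trapezoidal rule, with curves beyond full viability scaled and failed quality-control curves removed.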

P12-Ichikawa = experiment: as above; details: 48 h
Method in brief: as §1

SEM cells [2] = experiment: as above; details: 48 h
Method in brief: as §1

CN1CC[C@H]([C@@H](O)C1)C2=C(O)C=C(O)C3=C2O\C(=C/C3=O)C4=CC=CC=C4Cl
Details | AUC of viability dose-response curve | cell viability [%]
NOMO1, HPLM + 10% dialyzed FBS | 265 | –
NOMO1, RPMI 5 mM glucose + 10% FBS | 288 | –
NOMO1, RPMI 5 mM glucose + 10% dialyzed FBS | 285 | –
P12-Ichikawa, HPLM + 10% dialyzed FBS | 306 | –
P12-Ichikawa, RPMI 5 mM glucose + 10% FBS | 301 | –
P12-Ichikawa, RPMI 5 mM glucose + 10% dialyzed FBS | 300 | –
SEM cells [1], 0.000781 µM | – | 104
SEM cells [1], 0.00234 µM | – | 121
SEM cells [1], 0.00702 µM | – | 134
SEM cells [1], 0.0211 µM | – | 132
SEM cells [1], 0.0632 µM | – | 128
SEM cells [1], 0.19 µM | – | 131
SEM cells [1], 0.569 µM | – | 23
SEM cells [1], 1.71 µM | – | 10.1
SEM cells [1], 5.12 µM | – | 6.69
SEM cells [1], 15.4 µM | – | 5.22
SEM cells [1], 46.1 µM | – | 6.07
SEM cells [2], HPLM + 10% dialyzed FBS | 281 | –
SEM cells [2], RPMI 5 mM glucose + 10% FBS | 276 | –
SEM cells [2], RPMI 5 mM glucose + 10% dialyzed FBS | 282 | –
